Source: patent US9951049B2, “Pyrazole linked benzimidazole conjugates and a process for preparation thereof” (Council of Scientific & Industrial Reseach, priority 2014, dated 2018)
“Also recorded” adds a separate entry of the source. Where two headings read alike, the source gives them in different places.

Assays:
NCI-H23 = assay: NCI SRB screen, NCI-H23; conditions: Homo sapiens, NCI-H23, 48 h, read-out: GI50 values
NCIH322M = assay: NCI SRB screen, NCIH322M; conditions: Homo sapiens, NCI-H322M, 48 h, read-out: GI50 values
M14 = assay: NCI SRB screen, M14; conditions: Homo sapiens, M14, 48 h, read-out: GI50 values
IGROV1 = assay: NCI SRB screen, IGROV1; conditions: Homo sapiens, IGROV-1, 48 h, read-out: GI50 values
MDA-MB-435 [1] = assay: NCI SRB screen, MDA-MB-435 (Breast panel); conditions: Homo sapiens, MDA-MB-435, 48 h, read-out: GI50 values
[2] = tested on: Non-small-cell lung cancer cell lines; assay: NCI SRB screen, Non-small-cell lung panel average; conditions: Homo sapiens, 48 h, read-out: Log10 GI50 (converted)
SK-OV-3 = assay: NCI SRB screen, SK-OV-3; conditions: Homo sapiens, SK-OV-3, 48 h, read-out: GI50 values
DU-145 = assay: NCI SRB screen, DU-145; conditions: Homo sapiens, DU-145, 48 h, read-out: GI50 values
[3] = tested on: Prostate cancer cell lines; assay: NCI SRB screen, Prostate panel average; conditions: Homo sapiens, 48 h, read-out: Log10 GI50 (converted)
MCF7 = assay: NCI SRB screen, MCF7; conditions: Homo sapiens, MCF7, 48 h, read-out: GI50 values
NCI/ADR-RES = assay: NCI SRB screen, NCI/ADR-RES; conditions: Homo sapiens, 48 h, read-out: GI50 values
ACHN = assay: NCI SRB screen, ACHN; conditions: Homo sapiens, 48 h, read-out: GI50 values
SN12C = assay: NCI SRB screen, SN12C; conditions: Homo sapiens, 48 h, read-out: GI50 values
MDA-MB-435 [4] = assay: NCI SRB screen, MDA-MB-435 (Melanoma panel); conditions: Homo sapiens, MDA-MB-435, 48 h, read-out: GI50 values
HL-60(TB) = assay: NCI SRB screen, HL-60(TB); type: cell-based; conditions: Homo sapiens, Leukemia, 48 h
MOLT-4 = assay: NCI SRB screen, MOLT-4; conditions: Homo sapiens, MOLT-4, 48 h, read-out: GI50 values
Leukemia cell lines = assay: NCI SRB screen, Leukemia panel average; conditions: Homo sapiens, 48 h, read-out: Log10 GI50 (converted)
HOP-62 = assay: NCI SRB screen, HOP-62; conditions: Homo sapiens, HOP-62, 48 h, read-out: GI50 values
U251 = assay: NCI SRB screen, U251; conditions: Homo sapiens, U-251, 48 h, read-out: GI50 values
786-0 = assay: NCI SRB screen, 786-0; conditions: Homo sapiens, 786-0, 48 h, read-out: GI50 values
SK-MEL-5 = assay: NCI SRB screen, SK-MEL-5; conditions: Homo sapiens, SK-MEL-5, 48 h, read-out: GI50 values, Melanoma, SK-MEL-5
A549/ATCC = assay: NCI SRB screen, A549/ATCC; conditions: Homo sapiens, A549, 48 h, read-out: GI50 values
OVCAR-3 = assay: NCI SRB screen, OVCAR-3; conditions: Homo sapiens, OVCAR-3, 48 h, read-out: GI50 values
BT-549 = assay: NCI SRB screen, BT-549; conditions: Homo sapiens, BT-549, 48 h, read-out: GI50 values
Breast Cancer cell lines = assay: NCI SRB screen, Breast Cancer panel average; conditions: Homo sapiens, 48 h, read-out: Log10 GI50 (converted)
A498 = assay: NCI SRB screen, A498; conditions: Homo sapiens, A498, 48 h, read-out: GI50 values
MALME-3M = assay: NCI SRB screen, MALME-3M; conditions: Homo sapiens, 48 h, read-out: GI50 values
RXF 393 = assay: NCI SRB screen, RXF 393; conditions: Homo sapiens, RXF 393, 48 h, read-out: GI50 values
SF-295 = assay: NCI SRB screen, SF-295; conditions: Homo sapiens, SF-295, 48 h, read-out: GI50 values
NCI-H226 = assay: NCI SRB screen, NCI-H226; conditions: Homo sapiens, NCI-H226, 48 h, read-out: GI50 values
SR = assay: NCI SRB screen, SR; conditions: Homo sapiens, 48 h, read-out: GI50 values
SF-539 = assay: NCI SRB screen, SF-539; conditions: Homo sapiens, 48 h, read-out: GI50 values
CNS cancer cell lines = assay: NCI SRB screen, CNS panel average; conditions: Homo sapiens, 48 h, read-out: Log10 GI50 (converted)
[5] = tested on: fifty six human tumor cell lines; assay: NCI human tumor cell line screen (48 h, SRB), all cell lines; conditions: for GI50: Homo sapiens; for anticancer activity (in words): human cancer cell lines of the NCI panel; for Log10 TGI mean graph midpoint (MG_MID): human tumor cell lines, mean over the panel, total growth inhibition
[6] = read-out: Log10 GI50 mean graph midpoint (MG_MID) (converted)

| Compound | GI50 (NCI-H23) [nM] | GI50 (NCIH322M) [nM] | GI50 (M14) [nM] | GI50 (IGROV1) [nM] | GI50 (MDA-MB-435 [1]) [nM] | GI50 [2] [nM] | GI50 (SK-OV-3) [nM] | GI50 (DU-145) [nM] | GI50 [3] [nM] | GI50 (MCF7) [nM] | GI50 (NCI/ADR-RES) [nM] | GI50 (ACHN) [nM] | GI50 (SN12C) [nM] | GI50 (MDA-MB-435 [4]) [nM] | GI50 (HL-60(TB)) [nM] | GI50 (MOLT-4) [nM] | GI50 (Leukemia cell lines) [nM] | GI50 (HOP-62) [nM] | GI50 (U251) [nM] | GI50 (786-0) [nM] | also measured |
| --- | --- | --- | --- | --- | --- | --- | --- | --- | --- | --- | --- | --- | --- | --- | --- | --- | --- | --- | --- | --- | --- |
| COc1cc(-c2cc(-c3nc4ccccc4[nH]3)[nH]n2)cc(OC)c1OC [6f, 2-(3-(3,4,5-trimethoxyphenyl)-1H-pyrazol-5-yl)-1H-benzo[d]imidazole] | 2260 | 2850 | 2570 | 2340 | 930 | 2400 | 3480 | 3900 | 2880 | 2790 | 2880 | 2770 | 3910 | 2350 | 2540 | 2130 | 2290 | 3540 | 3730 | 3660 | GI50 (SK-MEL-5): 1340 nM; GI50 (A549/ATCC): 2430 nM; GI50 (OVCAR-3): 4000 nM; GI50 (BT-549): 1800 nM; GI50 (Breast Cancer cell lines): 2240 nM; GI50 (A498): 1510 nM; GI50 (MALME-3M): 1950 nM; GI50 (RXF 393): 1770 nM; GI50 (SF-295): 3130 nM; GI50 (NCI-H226): 1140 nM; GI50 (SR): 3320 nM; GI50 (SF-539): 5110 nM; GI50 (CNS cancer cell lines): 5250 nM; GI50 ([5]; read-out: GI50 value range): 340 to 10000 nM; GI50 [5, 6]: 2880 nM; anticancer activity (in words) [5]: significant anticancer activity; also recorded: pronounced activities; Log10 TGI mean graph midpoint (MG_MID) [5]: −4.83 |
| c1ccc2[nH]c(-c3cc(-c4ccc5c(c4)OCO5)n[nH]3)nc2c1 [6g, 2-(3-(benzo[d][1,3]dioxol-5-yl)-1H-pyrazol-5-yl)-1H-benzo[d]imidazole] | 4470 | 6290 | 2190 | 3660 | 3570 | 4570 | 4980 | 7270 | 5130 | 3780 | 4080 | 4330 | 3730 | 3120 | 2270 | 2680 | 2510 | 8460 | 2370 | 4580 | GI50 (SK-MEL-5): 1530 nM; GI50 (A549/ATCC): 4230 nM; GI50 (OVCAR-3): 3210 nM; GI50 (BT-549): 2120 nM; GI50 (Breast Cancer cell lines): 3390 nM; GI50 (A498): 1700 nM; GI50 (MALME-3M): 2330 nM; GI50 (RXF 393): 2360 nM; GI50 (SF-295): 3240 nM; GI50 (NCI-H226): 4420 nM; GI50 (SR): 3370 nM; GI50 (SF-539): 2710 nM; GI50 (CNS cancer cell lines): 4270 nM; GI50 ([5]; read-out: GI50 value range): 340 to 10000 nM; GI50 [5, 6]: 3720 nM; anticancer activity (in words) [5]: significant anticancer activity; also recorded: pronounced activities; Log10 TGI mean graph midpoint (MG_MID) [5]: −4.75 |
| Fc1ccc2[nH]c(-c3cc(-c4ccc5c(c4)OCO5)n[nH]3)nc2c1 [7g, 2-(3-(benzo[d][1,3]dioxol-5-yl)-1H-pyrazol-5-yl)-5-fluoro-1H-benzo[d]imidazole] | 8840 | 6880 | 4170 | 3670 | 4140 | 5370 | 1240 | 8240 | 5620 | 3530 | 4430 | 3640 | 4950 | 5430 | 2740 | 3140 | 2950 | 8540 | 2780 | 7130 | GI50 (SK-MEL-5): 1460 nM; GI50 (A549/ATCC): 3530 nM; GI50 (OVCAR-3): 5320 nM; GI50 (BT-549): 2160 nM; GI50 (Breast Cancer cell lines): 3630 nM; GI50 (A498): 4660 nM; GI50 (MALME-3M): 2750 nM; GI50 (RXF 393): 3020 nM; GI50 (SF-295): 4200 nM; GI50 (NCI-H226): 4210 nM; GI50 (SR): 4950 nM; GI50 (SF-539): 2900 nM; GI50 (CNS cancer cell lines): 6310 nM; GI50 ([5]; read-out: GI50 value range): 340 to 10000 nM; GI50 [5, 6]: 4790 nM; anticancer activity (in words) [5]: significant anticancer activity; also recorded: pronounced activities; Log10 TGI mean graph midpoint (MG_MID) [5]: −4.19 |
| COc1ccc2[nH]c(-c3cc(-c4cc(OC)c(OC)c(OC)c4)n[nH]3)nc2c1 [9f, 5-methoxy-2-(3-(3,4,5-trimethoxyphenyl)-1H-pyrazol-5-yl)-1H-benzo[d]imidazole] | 1340 | 2470 | 1660 | 1900 | 380 | 1480 | 2830 | 2290 | 1550 | 2150 | 2910 | 2630 | 2060 | 1490 | 1690 | 730 | 1260 | 2020 | 2900 | 2920 | GI50 (A549/ATCC): 1630 nM; GI50 (OVCAR-3): 2050 nM; GI50 (BT-549): 890 nM; GI50 (Breast Cancer cell lines): 1150 nM; GI50 (A498): 2230 nM; GI50 (MALME-3M): 1740 nM; GI50 (RXF 393): 2490 nM; GI50 (SF-295): 1620 nM; GI50 (NCI-H226): 460 nM; GI50 (SR): 1740 nM; GI50 (SF-539): 2420 nM; GI50 (CNS cancer cell lines): 2450 nM; GI50 ([5]; read-out: GI50 value range): 340 to 10000 nM; GI50 [5, 6]: 1700 nM; potency compared with compounds 6f, 6g, 7g and 10f ([5]; against all the cell lines tested): more potent; growth inhibitory activity (in words) ([5]; against breast cancer and leukemia cell lines): potential growth inhibitory activity; anticancer activity (in words) [5]: significant anticancer activity; also recorded: pronounced activities; Log10 TGI mean graph midpoint (MG_MID) [5]: −5.17 |
